Test results as given in patent US11358969B2, “Indole AHR inhibitors and uses thereof” (Ikena Oncology, Inc., priority 2017, dated 2022).

Tests used:
[1] = target: T1, AHR (UniProt P35869); experiment: DRE-Luciferase Reporter Assay (Alternate Method) (Example 1B); format: cell-based, murine or human; details: cell line and AHR activating ligand not specified
T1 construct: IC50
T1 sequence (P35869 1-848): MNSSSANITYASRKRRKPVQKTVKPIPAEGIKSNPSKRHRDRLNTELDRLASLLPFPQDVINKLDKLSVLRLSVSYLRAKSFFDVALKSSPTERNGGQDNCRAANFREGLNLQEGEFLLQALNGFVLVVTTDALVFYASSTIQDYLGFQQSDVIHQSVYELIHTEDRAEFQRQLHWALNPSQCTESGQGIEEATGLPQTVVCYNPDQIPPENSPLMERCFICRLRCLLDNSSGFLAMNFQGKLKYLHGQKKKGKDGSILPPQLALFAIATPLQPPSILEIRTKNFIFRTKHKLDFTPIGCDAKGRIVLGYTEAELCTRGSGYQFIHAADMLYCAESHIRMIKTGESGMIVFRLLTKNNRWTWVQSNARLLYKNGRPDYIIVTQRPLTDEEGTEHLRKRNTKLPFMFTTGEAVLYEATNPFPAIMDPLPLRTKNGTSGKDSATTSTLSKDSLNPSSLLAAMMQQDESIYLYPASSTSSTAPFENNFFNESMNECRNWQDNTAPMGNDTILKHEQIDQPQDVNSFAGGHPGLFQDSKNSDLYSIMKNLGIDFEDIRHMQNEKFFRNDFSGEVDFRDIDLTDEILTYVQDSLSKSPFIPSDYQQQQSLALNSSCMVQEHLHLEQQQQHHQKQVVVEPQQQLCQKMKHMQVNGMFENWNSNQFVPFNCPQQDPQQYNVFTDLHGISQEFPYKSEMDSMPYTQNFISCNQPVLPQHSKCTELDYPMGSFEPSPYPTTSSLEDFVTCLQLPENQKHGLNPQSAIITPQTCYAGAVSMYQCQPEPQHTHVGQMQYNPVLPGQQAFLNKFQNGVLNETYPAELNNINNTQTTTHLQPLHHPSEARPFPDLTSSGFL

[2] = In Vitro Mouse liver S9 Metabolic Stability Assay (Example 1D); format: in vitro ADME; details: CD-1 mouse liver S9, 1 μM compound, 1 mg/mL S9 protein, 37° C., NADPH regenerating system, UDPGA, PAPS
Procedure: CD-1 mouse liver S9 were purchased from Corning or XenoTech LLC or BioreclamationIVT, LLC or WuXi prepared. The cells were stored at −80° C. in a freezer before use. β-Nicotinamide adenine dinucleotide phosphate (NADP), Glucose 6-phosphate (G6P), Glucose 6-phosphate dehydrogenase from yeast (G6PDH), Uridine 5′-diphophoglucuronic acid trisodium salt (UDPGA) and Adenosine 3′-phosphate 5′-phosphosulfate lithium salt hydrate (PAPS) were available commercially from Sigma.
Compounds were diluted in DMSO to make 10 mM stock solution. 5 μL of this stock solution (10 mM, DMSO) was diluted with 45 μL DMSO and 450 μL 50% Methanol/Water to make intermediate stock solution (100 μM, 45% MeOH, 10% DMSO). 50 μL of intermediate stock solution was diluted with 450 μL 100 mM phosphate buffer to make a final stock solution (10 μM, 4.5% MeOH, 1% DMSO). 10 uL of final stock solution was added to 90 uL liver S9 system (final concentration of 1 μM, 0.45% MeOH, 0.1% DMSO).
Test compounds were incubated at 37° C. with liver S9 (pooled from multiple donors) at 1 μM in the presence of a NADPH regenerating system, UDPGA, and PAPS at 1 mg/mL S9 protein. Time samples (0 and 60 minutes) were removed and immediately mixed with cold acetonitrile containing internal standard (IS). Samples were analyzed by LC/MS/MS and disappearance of test compounds were assessed based on peak area ratios of analyte /IS (no standard curve). All samples were injected and analyzed using LC-MS/MS. The analyte/internal standard peak area ratios were converted to percentage remaining (% Remaining) with the following equation: % Remaining at 60 min=(Peak area ratio of analyte to IS at 60 min/Peak area ratio of analyte to IS at t=0)×100%. Table 5. Mouse Stability Data According to Example 1D.

[3] = Mouse Pharmacokinetic Study (Example 1C); format: in vivo; details: mouse, plasma, CD-1 mice; for Vd: read-out: Vdss
Procedure: Formulations of compounds set forth in Table 4 were administered intravenously or orally via gavage to CD-1 mice. Typically, at 0.167, 0.5, 1, 2, 4, 6, 12, and 24 hours post-dose, blood was collected and processed to plasma by centrifugation and stored at −80° C. until analysis.
Internal standard was added to each sample prior to protein precipitation with acetonitrile. The precipitates were filtered through a Phree phospholipid removal filter plate and the samples were analyzed by LC/MS/MS. A standard curve was prepared in plasma from typically from 1.0 ng/mL to 3000 ng/mL and processed in the same manner as the samples. Sample analysis was typically performed on a suitable LC/MS/MS system fitted with an analytical UPLC column and compounds eluted from the analytical column with a gradient from 30-95% 0.1% formic acid (v/v) in ACN: 0.1% formic acid (v/v) in water. Mass spectrometric detection of test compound and the internal standard was performed by MRM in positive mode. The pharmacokinetics of each compound were analyzed by Phoenix WinNonlin software (Pharsight, St. Louis, Mo.) via non-compartmental analysis.

For `CC(C)c1cnc2c(NCCc3c[nH]c4ccccc34)nc(-c3cncc(F)c3)cn12` [I-106, 6-(5-Fluoro-3-pyridyl)-N-[2-(1H-indol-3-yl)ethyl]-3-isopropyl-imidazo[1,2-a]pyrazin-8-amine], the IC50 [1] was under 500 nM and the “Mouse S9 Stability: % Remaining After 60 Minutes” value [2] was 1%.

With `CON(C)C(=O)c1cnn2c(NCCc3c[nH]c4ccccc34)cc(-c3cncc(F)c3)nc12` [I-92, 5-(5-Fluoro-3-pyridyl)-7-[2-(1H-indol-3-yl)ethylamino]-N-methoxy-N-methyl-pyrazolo[1,5-a]pyrimidine-3-carboxamide] the IC50 [1] was under 500 nM and the “Mouse S9 Stability: % Remaining After 60 Minutes” value [2] was 0%.

With `CC(C)c1cnn2c(NCCc3c[nH]c4ccccc34)cc(-c3cncc(C#N)c3)nc12` [I-81, 5-[7-[2-(1H-indol-3-yl)ethylamino]-3-isopropyl-pyrazolo[1,5-a]pyrimidin-5-yl]pyridine-3-carbonitrile] the IC50 [1] was under 500 nM and the “Mouse S9 Stability: % Remaining After 60 Minutes” value [2] was 2%.

In the case of `CC(C)c1cnc2c(N[C@@H]3CCc4[nH]c5ccccc5c4C3)nc(-c3cncc(F)c3)cn12` [I-30, (3R)—N-[6-(5-Fluoro-3-pyridyl)-3-isopropyl-imidazo[1,2-a]pyrazin-8-yl]-2,3,4,9-tetrahydro-1H-carbazol-3-amine], the IC50 [1] is reported as under 500 nM and the “Mouse S9 Stability: % Remaining After 60 Minutes” value [2] is reported as 11%.

For `CC(C)c1cnn2c(NCCc3c[nH]c4ccccc34)cc(-c3ccccc3)nc12` [I-45, N-[2-(1H-indol-3-yl)ethyl]-3-isopropyl-5-phenyl-pyrazolo[1,5-a]pyrimidin-7-amine], the IC50 [1] was under 500 nM and the “Mouse S9 Stability: % Remaining After 60 Minutes” value [2] was 19%.

In the case of `Cc1[nH]c2c(F)cccc2c1CCNc1cc(-c2cncc(F)c2)nc2ccnn12` [I-214, N-[2-(7-Fluoro-2-methyl-1H-indol-3-yl)ethyl]-5-(5-fluoro-3-pyridyl)pyrazolo[1,5-a]pyrimidin-7-amine], the IC50 [1] is reported as under 500 nM and the “Mouse S9 Stability: % Remaining After 60 Minutes” value [2] is reported as 0%.

With `CC(C)(C)c1cnn2c(NCCc3c[nH]c4ccccc34)cc(-c3cncc(F)c3)nc12` [I-90, 3-tert-Butyl-5-(5-fluoro-3-pyridyl)-N-[2-(1H-indol-3-yl)ethyl]pyrazolo[1,5-a]pyrimidin-7-amine] the IC50 [1] was under 500 nM and the “Mouse S9 Stability: % Remaining After 60 Minutes” value [2] was 11%.

For `Fc1cncc(-c2cc(NCCc3c[nH]c4ccccc34)n3ncc(C(F)(F)F)c3n2)c1` [I-47, 5-(5-Fluoro-3-pyridyl)-N-[2-(1H-indol-3-yl)ethyl]-3-(trifluoromethyl)pyrazolo[1,5-a]pyrimidin-7-amine], the IC50 [1] was under 500 nM and the “Mouse S9 Stability: % Remaining After 60 Minutes” value [2] was 50%.

In the case of `Cc1[nH]c2c(F)cccc2c1CCNc1nc(-c2cncc(F)c2)nc2ccnn12` [I-200, N-[2-(7-fluoro-2-methyl-1H-indol-3-yl)ethyl]-2-(5-fluoro-3-pyridyl)pyrazolo[1,5-a][1,3,5]triazin-4-amine], the IC50 [1] is reported as under 500 nM and the “Mouse S9 Stability: % Remaining After 60 Minutes” value [2] is reported as 0%.

With `CN1CCN(C(=O)c2cnn3c(NCCc4c[nH]c5ccccc45)cc(-c4cncc(F)c4)nc23)CC1` [I-68, [5-(5-Fluoro-3-pyridyl)-7-[2-(1H-indol-3-yl)ethylamino]pyrazolo[1,5-a]pyrimidin-3-yl]-(4-methylpiperazin-1-yl)methanone] the IC50 [1] was 500 to 1000 nM and the “Mouse S9 Stability: % Remaining After 60 Minutes” value [2] was 4%.

With `Cc1[nH]c2c(F)cccc2c1CCNc1cc(-c2cncc(F)c2)nc2c(C(F)(F)F)cnn12` [I-235, N-[2-(7-Fluoro-2-methyl-1H-indol-3-yl)ethyl]-5-(5-fluoro-3-pyridyl)-3-(trifluoromethyl)pyrazolo[1,5-a]pyrimidin-7-amine] the IC50 [1] was under 500 nM and the “Mouse S9 Stability: % Remaining After 60 Minutes” value [2] was 2%.

For `Fc1cncc(-c2cc(NCCc3c[nH]c4cccnc34)n3nccc3n2)c1` [I-208, 5-(5-Fluoro-3-pyridyl)-N-[2-(1H-pyrrolo[3,2-b]pyridin-3-yl)ethyl]pyrazolo[1,5-a]pyrimidin-7-amine], the IC50 [1] was over 1500 nM and the “Mouse S9 Stability: % Remaining After 60 Minutes” value [2] was 0%.

With `Cc1[nH]c2c(F)cccc2c1CCNc1nc(-c2cncc(F)c2)nc2c(C)cnn12` [I-202, N-[2-(7-Fluoro-2-methyl-1H-indol-3-yl)ethyl]-2-(5-fluoro-3-pyridyl)-8-methyl-pyrazolo[1,5-a][1,3,5]triazin-4-amine] the IC50 [1] was under 500 nM and the “Mouse S9 Stability: % Remaining After 60 Minutes” value [2] was 0%.

For `CC(C)c1cnn2c(NCCc3c[nH]c4c(F)cc(F)cc34)nc(-c3cncc(F)c3)nc12` [I-96, N-[2-(5,7-Difluoro-1H-indol-3-yl)ethyl]-2-(5-fluoro-3-pyridyl)-8-isopropyl-pyrazolo[1,5-a][1,3,5]triazin-4-amine], the IC50 [1] was under 500 nM and the “Mouse S9 Stability: % Remaining After 60 Minutes” value [2] was 36%.

`CC(C)c1cnn2c(N[C@H]3CCc4[nH]ccc4C3)nc(-c3cncc(F)c3)nc12` [I-137a, 2-(5-fluoro-3-pyridyl)-8-isopropyl-N-[(5S)-4,5,6,7-tetrahydro-1H-indol-5-yl]pyrazolo[1,5-a][1,3,5]triazin-4-amine] gave an IC50 [1] of under 500 nM, a bioavailability ([3]; po, 30 mg/kg) of 19% and an AUC(0-inf) ([3]; iv, 3 mg/kg) of 2010 ng·h/mL. For the same molecule, the AUC(0-t) ([3]; iv, 3 mg/kg) was 1920 ng·h/mL, the clearance ([3]; iv, 3 mg/kg) was 25 mL/min/kg and the half-life ([3]; iv, 3 mg/kg) was 8.2 h. For the same molecule, the Vd ([3]; iv, 3 mg/kg) was 6.6 L/kg, the AUC(0-inf) ([3]; po, 30 mg/kg) was 3840 ng·h/mL and the AUC(0-t) ([3]; po, 30 mg/kg) was 3780 ng·h/mL. The Cmax ([3]; po, 30 mg/kg) was 953 ng/mL, the Tmax ([3]; po, 30 mg/kg) was 0.5 h and the half-life ([3]; po, 30 mg/kg) was 3.5 h.

In the case of `CC(C)c1cnn2c(N[C@H](C)Cc3c[nH]c4ccccc34)cc(-c3cncc(F)c3)nc12` [I-98b], the “Mouse S9 Stability: % Remaining After 60 Minutes” value [2] is reported as 0%.

Work on `Fc1cncc(-c2nc(N[C@@H]3CCc4[nH]c5ccccc5c4C3)c3ncccc3n2)c1` [I-126, (3R)—N-[2-(5-Fluoro-3-pyridyl)pyrido[3,2-d]pyrimidin-4-yl]-2,3,4,9-tetrahydro-1H-carbazol-3-amine] yielded an IC50 [1] of under 500 nM, a bioavailability ([3]; po, 30 mg/kg) of 100% and an AUC(0-inf) ([3]; iv, 3 mg/kg) of 1650 ng·h/mL. It also gave an AUC(0-t) ([3]; iv, 3 mg/kg) of 1460 ng·h/mL, a clearance ([3]; iv, 3 mg/kg) of 30 mL/min/kg and a half-life ([3]; iv, 3 mg/kg) of 8.8 h. The Vd ([3]; iv, 3 mg/kg) was 17 L/kg, the AUC(0-inf) ([3]; po, 30 mg/kg) was 14700 ng·h/mL and the AUC(0-t) ([3]; po, 30 mg/kg) was 13700 ng·h/mL. For the same molecule, the Cmax ([3]; po, 30 mg/kg) was 1870 ng/mL, the Tmax ([3]; po, 30 mg/kg) was 1 h and the half-life ([3]; po, 30 mg/kg) was 6.1 h.

Work on `N#Cc1cnn2c(N[C@@H]3CCc4[nH]c5ccccc5c4C3)nc(-c3cncc(F)c3)nc12` [I-130, 2-(5-Fluoro-3-pyridyl)-4-[[(3R)-2,3,4,9-tetrahydro-1H-carbazol-3-yl]amino]pyrazolo[1,5-a][1,3,5]triazine-8-carbonitrile] yielded an IC50 [1] of under 500 nM, a bioavailability ([3]; po, 30 mg/kg) of 53% and an AUC(0-inf) ([3]; iv, 3 mg/kg) of 1270 ng·h/mL. The AUC(0-t) ([3]; iv, 3 mg/kg) was 1220 ng·h/mL, the clearance ([3]; iv, 3 mg/kg) was 39 mL/min/kg and the half-life ([3]; iv, 3 mg/kg) was 2.6 h. The Vd ([3]; iv, 3 mg/kg) was 7.5 L/kg, the AUC(0-inf) ([3]; po, 30 mg/kg) was 6690 ng·h/mL and the AUC(0-t) ([3]; po, 30 mg/kg) was 6620 ng·h/mL. The Cmax ([3]; po, 30 mg/kg) was 936 ng/mL, the Tmax ([3]; po, 30 mg/kg) was 2 h and the half-life ([3]; po, 30 mg/kg) was 3.5 h.
